Assay results as given in ChEMBL document CHEMBL3885861, “Open TG-GATES”.

Species on record: Rattus norvegicus
Assay: Open TG-GATES - Regimen: Single
Assay type: toxicity, organism-based, Sprague-Dawley
Parameters: regimen Single, gender Male, age 6 weeks
Conditions: in vivo, po, 0 mg/kg, route gavage, dose level Control; for APTT / Bas / Eos / Fbg / Hb / Ht / Lym / MCH / MCHC / MCV / Mono / Neu / PT / Plat / RBC / Ret / WBC: tissue Blood; for KIDNEY_L / KIDNEY_R / KIDNEY_TOTAL: tissue Kidney; for LIVER: tissue Liver; for A/G / ALP / ALT / AST / BUN / CRE / Ca / Cl / DBIL / GLC / IP / K / LDH / Na / PL / RALB / TBIL / TC / TG / TP / gamma-GTP: tissue Plasma

Compound: CN(C)[C@@H]1C(O)=C(C(N)=O)C(=O)[C@@]2(O)C(O)=C3C(=O)c4c(O)cccc4[C@@](C)(O)[C@H]3C[C@@H]12 [TETRACYCLINE]
- TERMINAL_BW (3 h): 187 g
- APTT (3 h): 16.4 s
- Bas (3 h): 0%
- Eos (3 h): 0.6%
- Fbg (3 h): 206.2 mg/dL
- Hb (3 h): 13.1 g/dL
- Ht (3 h): 39.4%
- Lym (3 h): 78.4%
- MCH (3 h): 22 pg
- MCHC (3 h): 33.1%
- MCV (3 h): 66.3 fL
- Mono (3 h): 8.6%
- Neu (3 h): 12.8%
- PT (3 h): 12.1 s
- Plat (3 h): 105.5 x10_4/uL
- RBC (3 h): 595.2 x10_4/ul
- Ret (3 h): 11%
- WBC (3 h): 95.1 x10_2/uL
- KIDNEY_L (3 h): 0.9 g
- KIDNEY_R (3 h): 0.9 g
- KIDNEY_TOTAL (3 h): 1.8 g
- LIVER (3 h): 9 g
- A/G (3 h): 2.2
- ALP (3 h): 813 IU/L
- ALT (3 h): 35.8 IU/L
- AST (3 h): 70.8 IU/L
- BUN (3 h): 12.6 mg/dL
- CRE (3 h): 0.5 mg/dL
- Ca (3 h): 11.1 mg/dL
- Cl (3 h): 103.6 meq/L
- DBIL (3 h): 0.02 mg/dL
- GLC (3 h): 187.8 mg/dL
- IP (3 h): 10.2 mg/dL
- K (3 h): 5.2 meq/L
- LDH (3 h): 87.6 IU/L
- Na (3 h): 137.6 meq/L
- PL (3 h): 143.2 mg/dL
- RALB (3 h): 3.7 g/dL
- TBIL (3 h): 0.4 mg/dL
- TC (3 h): 84 mg/dL
- TG (3 h): 42.4 mg/dL
- TP (3 h): 5.4 g/dL
- gamma-GTP (3 h): 1.4 IU/L
- TERMINAL_BW (6 h): 181.3 g
- APTT (6 h): 16.7 s
- Bas (6 h): 0%
- Eos (6 h): 0.8%
- Fbg (6 h): 200.2 mg/dL
- Hb (6 h): 13.1 g/dL
- Ht (6 h): 39.1%
- Lym (6 h): 81.6%
- MCH (6 h): 22 pg
- MCHC (6 h): 33.4%
- MCV (6 h): 65.9 fL
- Mono (6 h): 5.2%
- Neu (6 h): 13%
- PT (6 h): 12.3 s
- Plat (6 h): 101.8 x10_4/uL
- RBC (6 h): 593.8 x10_4/ul
- Ret (6 h): 10.7%
- WBC (6 h): 118.1 x10_2/uL
- KIDNEY_L (6 h): 0.8 g
- KIDNEY_R (6 h): 0.8 g
- KIDNEY_TOTAL (6 h): 1.7 g
- LIVER (6 h): 8.3 g
- A/G (6 h): 2.2
- ALP (6 h): 900.4 IU/L
- ALT (6 h): 36.2 IU/L
- AST (6 h): 68.8 IU/L
- BUN (6 h): 9 mg/dL
- CRE (6 h): 0.4 mg/dL
- Ca (6 h): 10.6 mg/dL
- Cl (6 h): 105.2 meq/L
- DBIL (6 h): 0.018 mg/dL
- GLC (6 h): 180 mg/dL
- IP (6 h): 10.5 mg/dL
- K (6 h): 5.2 meq/L
- LDH (6 h): 77.6 IU/L
- Na (6 h): 136.4 meq/L
- PL (6 h): 130.4 mg/dL
- RALB (6 h): 3.7 g/dL
- TBIL (6 h): 0.3 mg/dL
- TC (6 h): 76 mg/dL
- TG (6 h): 36 mg/dL
- TP (6 h): 5.3 g/dL
- gamma-GTP (6 h): 1.2 IU/L
- TERMINAL_BW (9 h): 179.4 g
- APTT (9 h): 16.9 s
- Bas (9 h): 0%
- Eos (9 h): 0.6%
- Fbg (9 h): 211.6 mg/dL
- Hb (9 h): 13.3 g/dL
- Ht (9 h): 40.3%
- Lym (9 h): 78%
- MCH (9 h): 21.7 pg
- MCHC (9 h): 33%
- MCV (9 h): 65.7 fL
- Mono (9 h): 6.2%
- Neu (9 h): 15.4%
- PT (9 h): 12.8 s
- Plat (9 h): 98.9 x10_4/uL
- RBC (9 h): 613.2 x10_4/ul
- Ret (9 h): 9.1%
- WBC (9 h): 72 x10_2/uL
- KIDNEY_L (9 h): 0.9 g
- KIDNEY_R (9 h): 0.9 g
- KIDNEY_TOTAL (9 h): 1.8 g
- LIVER (9 h): 7.5 g
- A/G (9 h): 2.3
- ALP (9 h): 844.2 IU/L
- ALT (9 h): 32.6 IU/L
- AST (9 h): 64.2 IU/L
- BUN (9 h): 10.6 mg/dL
- CRE (9 h): 0.4 mg/dL
- Ca (9 h): 10.4 mg/dL
- Cl (9 h): 106.2 meq/L
- DBIL (9 h): 0.024 mg/dL
- GLC (9 h): 176.4 mg/dL
- IP (9 h): 10.6 mg/dL
- K (9 h): 5.3 meq/L
- LDH (9 h): 81.2 IU/L
- Na (9 h): 138.8 meq/L
- PL (9 h): 123.6 mg/dL
- RALB (9 h): 3.8 g/dL
- TBIL (9 h): 0.3 mg/dL
- TC (9 h): 71.2 mg/dL
- TG (9 h): 23.6 mg/dL
- TP (9 h): 5.5 g/dL
- gamma-GTP (9 h): 1.4 IU/L
- TERMINAL_BW (24 h): 200.1 g
- APTT (24 h): 16.6 s
- Bas (24 h): 0%
- Eos (24 h): 0.8%
- Fbg (24 h): 205.2 mg/dL
- Hb (24 h): 13.2 g/dL
- Ht (24 h): 39.7%
- Lym (24 h): 76.6%
- MCH (24 h): 22.1 pg
- MCHC (24 h): 33.2%
- MCV (24 h): 66.7 fL
- Mono (24 h): 8.2%
- Neu (24 h): 14.8%
- PT (24 h): 11.9 s
- Plat (24 h): 112.5 x10_4/uL
- RBC (24 h): 596.4 x10_4/ul
- Ret (24 h): 9.8%
- WBC (24 h): 81.9 x10_2/uL
- KIDNEY_L (24 h): 0.9 g
- KIDNEY_R (24 h): 0.9 g
- KIDNEY_TOTAL (24 h): 1.8 g
- LIVER (24 h): 10.2 g
- A/G (24 h): 2.3
- ALP (24 h): 1007 IU/L
- ALT (24 h): 45.4 IU/L
- AST (24 h): 76.6 IU/L
- BUN (24 h): 17.4 mg/dL
- CRE (24 h): 0.5 mg/dL
- Ca (24 h): 11.1 mg/dL
- Cl (24 h): 105.2 meq/L
- DBIL (24 h): 0.008 mg/dL
- GLC (24 h): 188.6 mg/dL
- IP (24 h): 9 mg/dL
- K (24 h): 4.9 meq/L
- LDH (24 h): 87.6 IU/L
- Na (24 h): 140.2 meq/L
- PL (24 h): 155 mg/dL
- RALB (24 h): 3.9 g/dL
- TBIL (24 h): 0.4 mg/dL
- TC (24 h): 84.2 mg/dL
- TG (24 h): 69.2 mg/dL
- TP (24 h): 5.7 g/dL
- gamma-GTP (24 h): 0.8 IU/L
